Measurements from patent publication US4264597A, “Cephalosporin analogues and processes for the preparation thereof” (priority 1978, dated 1981).
Values after ≈ are worked out from the molar mass of the structure shown.

Test system: T. asteroides
Experiment: In vitro antimicrobial activity, two-fold agar-plate dilution method (MIC)
Type: cell-based
Conditions: overnight culture in Trypticase-soy broth (10^4-5 viable spores per ml) streaked on HI-agar, incubation at 37° C. for 20 hours
Method: In vitro antibacterial activity was determined by the two-fold agar-plate dilution method as described below. One loopful of an overnight culture of each test strain in Trypticase-soy broth (10^4-5 viable spores per ml) was streaked on heart infusion sugar (HI-agar) containing graded concentrations of antibiotics, and the minimal inhibitory concentration (MIC) was expressed in terms of μg/ml after incubation at 37° C. for 20 hours.

Compound	MIC [µg/mL]
O=C(COc1ccccc1)N[C@@H]1C(=O)N2C(C(=O)OCc3ccccc3)=CC(=O)S[C@H]12 [(1)]	100 (≈ 228 µM)
O=C(COc1ccccc1)N[C@@H]1C(=O)N2C(C(=O)OCc3ccccc3)=CC(=O)O[C@H]12 [(2)]	200 (≈ 473 µM)
